pEC50, pIC50: −log10 of the molar value.
Experiments:
[1] = biological target: T1, human liver FBPase (Homo sapiens, UniProt P09467); assay: Inhibition of human liver FBPase; format: biochemical; settings: for pIC50: values in text, read-out: hlFBPase IC50
T1 construct: made in house; host or cells: E. coli BL21
T1 sequence (P09467 2-338 limits assumed): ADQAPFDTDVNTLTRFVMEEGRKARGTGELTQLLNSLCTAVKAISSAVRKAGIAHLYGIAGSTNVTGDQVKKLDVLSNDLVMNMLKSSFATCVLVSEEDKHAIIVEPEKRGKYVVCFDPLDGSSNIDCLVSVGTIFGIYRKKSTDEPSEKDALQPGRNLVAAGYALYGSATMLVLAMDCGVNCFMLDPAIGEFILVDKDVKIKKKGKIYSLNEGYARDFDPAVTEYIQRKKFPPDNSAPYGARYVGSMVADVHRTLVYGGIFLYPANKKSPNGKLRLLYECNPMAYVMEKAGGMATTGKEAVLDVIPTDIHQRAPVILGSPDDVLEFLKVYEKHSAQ

[2] = biological target: T2, Glycogen Phosphorylase (rabbit muscle) (Oryctolagus cuniculus, UniProt P00489); assay: Glycogen phosphorylase selectivity assay; format: biochemical; settings: for pEC50: Table 3 Selectivity, read-out: Glycogen Phosphorylase (act.); for effect on glycogen phosphorylase: result in words
T2 construct: Enzyme (rabbit muscle) was purchased from Sigma; purchased Sigma; host or cells: rabbit muscle
T2 sequence (P00489 2-843 limits assumed): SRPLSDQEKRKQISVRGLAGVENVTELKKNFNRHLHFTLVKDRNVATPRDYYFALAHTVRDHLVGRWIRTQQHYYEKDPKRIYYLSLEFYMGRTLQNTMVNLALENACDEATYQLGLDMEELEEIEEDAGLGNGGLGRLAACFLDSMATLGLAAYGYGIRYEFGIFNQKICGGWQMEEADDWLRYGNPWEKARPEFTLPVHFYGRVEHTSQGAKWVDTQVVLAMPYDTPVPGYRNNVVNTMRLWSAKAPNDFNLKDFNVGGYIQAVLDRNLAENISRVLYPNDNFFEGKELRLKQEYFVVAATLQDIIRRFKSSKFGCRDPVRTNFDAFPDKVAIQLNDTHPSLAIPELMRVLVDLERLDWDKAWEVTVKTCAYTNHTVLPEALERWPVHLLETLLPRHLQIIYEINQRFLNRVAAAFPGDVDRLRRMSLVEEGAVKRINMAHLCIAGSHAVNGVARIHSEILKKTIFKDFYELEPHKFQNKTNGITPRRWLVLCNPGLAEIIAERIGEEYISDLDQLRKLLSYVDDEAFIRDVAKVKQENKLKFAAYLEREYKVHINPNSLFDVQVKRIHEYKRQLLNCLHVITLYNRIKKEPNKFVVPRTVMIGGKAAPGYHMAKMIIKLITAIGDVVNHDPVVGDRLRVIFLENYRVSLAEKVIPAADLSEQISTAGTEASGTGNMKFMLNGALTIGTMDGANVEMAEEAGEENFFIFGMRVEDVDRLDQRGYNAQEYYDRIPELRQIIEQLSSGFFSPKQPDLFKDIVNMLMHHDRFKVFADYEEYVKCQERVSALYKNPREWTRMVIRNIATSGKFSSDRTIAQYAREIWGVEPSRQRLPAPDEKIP
Description: (§1) To determine the selectivity of compounds towards FBPase, effects of FBPase inhibitors on 5 key AMP binding enzymes were measured using the assays described below:
Glycogen Phosphorylase: Enzyme (rabbit muscle) was purchased from Sigma. Activity was measured at 37° C. in reactions in which the formation of glucose 1-phosphate was coupled to the reduction of NADP via phosphoglucomutase and glucose 6-phosphate dehydrogenase. Assays were performed on 96-well microtitre plates and were read at 340 nm on a Molecular Devices Microplate Reader. Reaction mixtures consisted of 20 mM imidazole, pH 7.4, 20 mM MgCl2, 150 mM potassium acetate, 5 mM potassium phosphate, 1 mM DTT, 1 mg/ml BSA, 0.1 mM NADP, 1 unit/mL phosphoglucomutase, 1 unit/mL glucose 6-phosphate dehydrogenase, 0.5% glycogen. Test compound concentrations ranged from 1 to 500 μM. Reactions were started by the addition of 17 μg enzyme and were monitored for 20 minutes.

[3] = biological target: T3, Adenylate Kinase (rabbit muscle) (Oryctolagus cuniculus, UniProt P00569); assay: Adenylate kinase selectivity assay; format: biochemical; settings: for pIC50: Table 3 Selectivity, read-out: Adenylate Kinase (inh.); for effect on adenylate kinase: result in words
T3 construct: Enzyme (rabbit muscle) was purchase from Sigma; purchased Sigma; host or cells: rabbit muscle
T3 sequence (P00569 1-194): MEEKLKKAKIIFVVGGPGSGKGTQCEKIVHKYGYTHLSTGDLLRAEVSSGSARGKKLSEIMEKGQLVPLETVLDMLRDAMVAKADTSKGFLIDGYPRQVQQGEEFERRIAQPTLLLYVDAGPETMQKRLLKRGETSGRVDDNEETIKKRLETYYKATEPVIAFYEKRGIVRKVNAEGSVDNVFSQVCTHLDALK
Description: as §1
Adenylate Kinase: Enzyme (rabbit muscle) was purchase from Sigma. Activity was measured at 37° C. in reaction mixtures (100 μL) containing 100 mM Hepes, pH 7.4, 45 mM MgCl2, 1 mM EGTA, 100 mM KCl, 2 mg/ml BSA, 1 mM AMP and 2 mM ATP. Reactions were started by addition of 4.4 ng enzyme and terminated after 5 minutes by addition of 17 μL perchloric acid. Precipitated protein was removed by centrifugation and the supernatant neutralized by addition of 33 μL 3 M KOH/3 M KH2CO3. The neutralized solution was clarified by centrifugation and filtration and analyzed for ADP content (enzyme activity) by HPLC using a YMC ODS AQ column (25×4.6 cm). A gradient was run from 0.1 M KH2PO4, pH 6, 8 mM tetrabutyl ammonium hydrogen sulfate to 75% acetonitrile. Absorbance was monitored at 254 nm.

[4] = system: rat hepatocytes; assay: Inhibition of gluconeogenesis in rat hepatocytes; format: cell-based; settings: for pIC50: Hepatocyte, glucose production from lactate/pyruvate, isolated rat hepatocytes, 1 hour; for inhibition of glucose production in rat hepatocytes (FIG. 4): result in words
Description: Hepatocytes were prepared from overnight fasted Sprague-Dawley rats (250-300 g) according to the procedure of Berry and Friend (Berry, M. N., Friend, D. S., 1969, J. Cell. Biol. 43, 506-520) as modified by Groen (Groen, A. K., Sips, H. J., Vervoorn, R. C., Tager, J. M., 1982, Eur. J. Biochem. 122, 87-93). Hepatocytes (75 mg wet weight/mL) were incubated in 1 ml Krebs-bicarbonate buffer containing 10 mM Lactate, 1 mM pyruvate, 1 mg/mL BSA, and test compound concentrations from 1 to 500 μM. Incubations were carried out in a 95% oxygen, 5% carbon dioxide atmosphere in closed, 50-mL Falcon tubes submerged in a rapidly shaking water bath (37° C.). After 1 hour, an aliquot (0.25 mL) was removed, transferred to an Eppendorf tube and centrifuged. 50 μL of supernatant was then assayed for glucose content using a Sigma Glucose Oxidase kit as per the manufacturer's instructions.

pIC50 [1] | pEC50 [2] | effect on glycogen phosphorylase [2] | pIC50 [3] | effect on adenylate kinase [3] | activation of glycogen phosphorylase ([2]; concentrations of drug ranging from 5 to […]) | SMILES | pIC50 [4] | inhibition of glucose production in rat hepatocytes (FIG. 4) [4] | inhibition of human liver FBPase activity (FIG. 2) ([1]; result in words)
5.70 | < 3.70 | essentially inactive | < 3.30 | essentially inactive | – | CCn1c(-c2ccc(P(=O)(O)O)o2)nc2c(N)cccc21 [Compound 12.1, 4-Amino-1-ethyl-2-[2-(5-phosphono)furanyl]benzimidazole] | 3.96 | inhibit glucose production in vitro in rat hepatocytes | –
7.26 | < 4.00 | essentially without effect | < 3.30 | essentially without effect | – | Nc1c(F)ccc2c1nc(-c1ccc(P(=O)(O)O)o1)n2CC1CC1 [Compound 12.61, 4-Amino-5-fluoro-1-cyclopropylmethyl-2-(2-phosphono-5-furanyl)benzimidazole] | 5.48 | inhibit glucose production in vitro in rat hepatocytes | inhibit human liver FBPase activity in vitro in a dose dependent manner
– | < 3.30 | – | – | – | no activation of the enzyme was observed | CCc1cc(F)c(N)c2nc(-c3ccc(P(=O)(O)O)o3)n(CC(C)C)c12 [Compound 12.64] | 5.60 | – | –
